# Data published in US20250388542A1, “ANALOGUES OF PENTAMIDINE AND USES THEREFOR” (Auransa Inc., priority 2018, published 2025).
# Assay: Tolerance in non-tumor bearing BALB/c nude mice
# Format: in vivo
# Method: The objective of this research is to assess Compound 1 tolerance in non-tumor bearing mice in BALB/c nude mice. Compound 1 exposure in plasma, liver, kidney, colon and bladder as well as serum-derived blood chemistries were tested.
# Thirty-six (36) female BALB/c nude mice of age 6-8 weeks having body weight of around 19-23 g were kept in individual ventilation cages at constant temperature (20˜26° C.) and humidity (40-70%) with 3 animals per cage. Animals had free access to irradiation sterilized dry granule food and sterile drinking water during the entire study period.
# After grouping, the animals were checked daily for morbidity and mortality. At the time of routine monitoring, the animals were measured for any effects on behavior such as mobility, food and water consumption, body weight gain/loss. Body weights were measured daily. Death and other clinical signs were recorded.
# Animals from each group were tested and samples collected at two different time points for blood chemistry tests as well as compound concentration in plasma, kidney, liver, colon and bladder. The first sampling was performed right before the last dose (0 h) on Day 21; and the second sampling was performed 1 hour after the last dose (1 h) on day 21. Detailed descriptions for sampling methods are as follows: […]
structure (smiles),measurement,setting,value
"N=C(N)c1ccc(OCCCCCOc2ccc(C(=N)N)nc2)cc1 [Compound 1, 5-(5-(4-carbamimidoylphenoxy)pentyloxy)picolinimidamide]","tolerability, body weight loss","5 mg/kg QD, 10 mg/kg QD, 10 mg/kg Q2D and 20 mg/kg QD, PO, 21 days",well tolerated with no obvious body weight loss
same,body weights compared with vehicle control group,"40 mg/kg QD PO, day 20 and 21",lower in a statistically significant manner at day 20 and 21
